Reference: ChEMBL document CHEMBL1201862, “PubChem BioAssay data set” (2004)
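Each compound was tested at five concentrations against cells in 96-well plates for 48 hours. GI50: concentration for 50% inhibition of growth.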 Calls of active or inactive are those of the source. Cut-off read from the data, not from the text of the source: active = GI50 up to about 1.1 µM and inactive = higher.

Assays:
Experiment in all cases: inhibition of tumour cell growth, NCI panel, 48 h
[1] = test system: M14
[2] = test system: MOLT-4
[3] = test system: OVCAR-3
[4] = test system: DMS-273
[5] = test system: NCI-H23
[6] = test system: COLO 205
[7] = test system: UACC-62
[8] = test system: XF498
[9] = test system: SK-OV-3
[10] = test system: RXF 393
[11] = test system: DLD-1
[12] = test system: CCRF-CEM
[13] = test system: SNB-75
[14] = test system: NCI-H226
[15] = test system: RPMI-8226
[16] = test system: SNB-19
[17] = test system: SF-268
[18] = test system: SN12C
[19] = test system: DMS-114
[20] = test system: 786-0
[21] = test system: K562
[22] = test system: SF-295
[23] = test system: OVCAR-8
[24] = test system: UACC-257
[25] = test system: SR
[26] = test system: KM12
[27] = test system: SW-620
[28] = test system: EKVX
[29] = test system: HCT-15
[30] = test system: SNB-78
[31] = test system: SK-MEL-5
[32] = test system: IGROV-1
[33] = test system: HCC 2998
[34] = test system: UO-31
[35] = test system: A549
[36] = test system: LXFL 529
[37] = test system: HOP-62
[38] = test system: TK-10
[39] = test system: HL-60
[40] = test system: HT-29
[41] = test system: HCT-116
[42] = test system: M19-MEL
[43] = test system: LOX IMVI
[44] = test system: SK-MEL-28
[45] = test system: OVCAR-4
[46] = test system: SF-539
[47] = test system: NCI/ADR-RES
[48] = test system: U-251
[49] = test system: A498
[50] = test system: SK-MEL-2
[51] = test system: Malme-3M
[52] = test system: OVCAR-5
[53] = test system: KM-20L2
[54] = test system: HOP-92
[55] = test system: NCI-H522
[56] = test system: NCI-H460
[57] = test system: MCF7
[58] = test system: HOP-18

N#C/N=C1\NC(Cc2ccccc2)C(=O)N1CCc1c[nH]c2ccccc12 (stereo not drawn)
GI50 [1]: 35.1 µM (inactive)
GI50 [2]: 18.4 µM (inactive)
GI50 [3]: 33.6 µM (inactive)
GI50 [4]: 27.7 µM (inactive)
GI50 [5]: 35.7 µM (inactive)
GI50 [6]: 19.7 µM (inactive)
GI50 [7]: 23.2 µM (inactive)
GI50 [8]: 27.4 µM (inactive)
GI50 [9]: 26.3 µM (inactive)
GI50 [10]: > 10 µM (inactive)
GI50 [11]: 33.9 µM (inactive)
GI50 [12]: 25.5 µM (inactive)
GI50 [13]: 8.87 µM (inactive)
GI50 [14]: 37.1 µM (inactive)
GI50 [15]: 25.6 µM (inactive)
GI50 [16]: 37 µM (inactive)
GI50 [17]: 15.7 µM (inactive)
GI50 [18]: 29.9 µM (inactive)
GI50 [19]: 29.3 µM (inactive)
GI50 [20]: 18.5 µM (inactive)
GI50 [21]: 23.9 µM (inactive)
GI50 [22]: 32.4 µM (inactive)
GI50 [23]: 37.4 µM (inactive)
GI50 [24]: 43.6 µM (inactive)
GI50 [25]: 33.7 µM (inactive)
GI50 [26]: 29.4 µM (inactive)
GI50 [27]: 34.9 µM (inactive)
GI50 [28]: 22.4 µM (inactive)
GI50 [29]: 29.4 µM
GI50 [30]: 21.8 µM (inactive)
GI50 [31]: 17.8 µM (inactive)
GI50 [32]: 31.8 µM (inactive)
GI50 [33]: 19.8 µM (inactive)
GI50 [34]: 24 µM (inactive)
GI50 [35]: 27 µM (inactive)
GI50 [36]: 30.1 µM (inactive)
GI50 [37]: 28.1 µM (inactive)
GI50 [38]: 26.6 µM (inactive)
GI50 [39]: 22.1 µM (inactive)
GI50 [40]: 34.9 µM (inactive)
GI50 [41]: 20.6 µM (inactive)
GI50 [42]: 30.1 µM (inactive)
GI50 [43]: 35.2 µM (inactive)
GI50 [44]: 23.6 µM (inactive)
GI50 [45]: 25.5 µM (inactive)
GI50 [46]: 29.6 µM (inactive)

O=[N+]([O-])c1cccc2c1[nH]c1c(-c3ccccc3)nccc12
GI50 [2]: 1.71 µM (inactive)
GI50 [3]: 1.36 µM (inactive)
GI50 [47]: 1.63 µM (inactive)
GI50 [48]: 2.51 µM (inactive)
GI50 [4]: 2.43 µM (inactive)
GI50 [5]: 2.07 µM (inactive)
GI50 [6]: 2.02 µM (inactive)
GI50 [7]: 1.74 µM (inactive)
GI50 [8]: 2.65 µM (inactive)
GI50 [9]: 2.01 µM (inactive)
GI50 [10]: 2.54 µM (inactive)
GI50 [11]: 2.85 µM (inactive)
GI50 [12]: 1.68 µM (inactive)
GI50 [13]: 2.4 µM (inactive)
GI50 [14]: 1.58 µM (inactive)
GI50 [15]: 1.46 µM (inactive)
GI50 [16]: 3.19 µM (inactive)
GI50 [17]: 4.04 µM (inactive)
GI50 [18]: 2.7 µM (inactive)
GI50 [19]: 1.27 µM (inactive)
GI50 [21]: 1.99 µM (inactive)
GI50 [22]: 3.08 µM (inactive)
GI50 [49]: 3.72 µM (inactive)
GI50 [50]: 1.07 µM (active)
GI50 [23]: 3.52 µM (inactive)
GI50 [24]: 1.94 µM (inactive)
GI50 [26]: 3.03 µM (inactive)
GI50 [27]: 3.41 µM (inactive)
GI50 [51]: 2.24 µM (inactive)
GI50 [28]: 3.21 µM (inactive)
GI50 [29]: 2.61 µM
GI50 [31]: 1.53 µM (inactive)
GI50 [52]: 3.9 µM (inactive)
GI50 [32]: 1.8 µM (inactive)
GI50 [33]: 3.31 µM (inactive)
GI50 [34]: 1.11 µM (active)
GI50 [35]: 2.67 µM (inactive)
GI50 [37]: 1.87 µM (inactive)
GI50 [53]: 2.45 µM (inactive)
GI50 [39]: 1.63 µM (inactive)
GI50 [40]: 1.58 µM (inactive)
GI50 [54]: 0.622 µM (active)
GI50 [41]: 2.39 µM (inactive)
GI50 [55]: 0.849 µM (active)
GI50 [56]: 2.33 µM (inactive)
GI50 [42]: 2.07 µM (inactive)
GI50 [43]: 2.73 µM (inactive)
GI50 [44]: 3.84 µM (inactive)
GI50 [45]: 2.02 µM (inactive)
GI50 [57]: 2.33 µM (inactive)
GI50 [46]: 3.19 µM (inactive)
GI50 [58]: 0.274 µM (active)
